# Source: ChEMBL document CHEMBL3045224, “New insecticidal compounds, communesins C, D and E, from Penicillium expansum link MK-57” (2004)
# Tested on: Bombyx mori
# Test: Insecticidal activity against po dosed third-instar larvae of Bombyx mori assessed as gram of diet
# Format: functional
row,Compound,LD50
1,CC(=O)N1CC[C@@]23c4ccccc4N[C@@H]4N(C)c5cccc6c5[C@@]42CCN([C@@H]13)[C@@H]6[C@H]1OC1(C)C [COMMUNESIN A],150 mg/kg
2,C/C=C/C=C/C(=O)N1CC[C@@]23c4ccccc4N[C@@H]4N(C)c5cccc6c5[C@@]42CCN([C@@H]13)[C@@H]6[C@H]1OC1(C)C [COMMUNESIN B],5 mg/kg
3,C/C=C/C=C/C(=O)N1CC[C@@]23c4ccccc4N[C@@H]4Nc5cccc6c5[C@@]42CCN([C@@H]13)[C@@H]6[C@H]1OC1(C)C [COMMUNESIN C],300 mg/kg
4,C/C=C/C=C/C(=O)N1CC[C@@]23c4ccccc4N[C@@H]4N(C=O)c5cccc6c5[C@@]42CCN([C@@H]13)[C@@H]6[C@H]1OC1(C)C [COMMUNESIN D],80 mg/kg
5,CC(=O)N1CC[C@@]23c4ccccc4N[C@@H]4N(C)c5cccc6c5[C@@]42CCN([C@@H]6C=C(C)C)[C@@H]13 [COMMUNESIN E],80 mg/kg
